Test results published in PubChem BioAssay AID1845197 (Molecular Pharmacology Branch, DTP, NCI, 2023).
Values joined by “and” are separate entries in the source; they are usually repeats but may differ in a detail not shown here. Equal entries are not always repeated.

System: 349418-098-R tumor spheroid viability
Test: Anticancer human tumor 349418-098-R patient-derived lung adenocarcinoma cell line growth inhibition
Conditions: spheroids with HUVEC and MSC; for viability, T/C: stronger effect = lower value
How it was run: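 Complex tumor spheroids combined malignant cells with endothelial cells and mesenchymal stem cells. DNA-damaging drugs and DNA repair inhibitors were tested alone and in combination, at half-log dilutions down from clinical Cmax (top 10 microM if Cmax unknown), 0.25% DMSO final.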

[1] = curve of first compound, second compound 1 µM
[2] = curve of first compound, second compound 3.16 µM
[3] = curve of first compound, second compound 10 µM
[4] = curve of first compound, second compound 31.6 µM
[5] = curve of first compound, second compound 100 µM
[6] = second compound 1 µM, first compound 0.00949 µM
[7] = second compound 1 µM, first compound 0.03 µM
[8] = second compound 1 µM, first compound 0.0949 µM
[9] = second compound 1 µM, first compound 0.3 µM
[10] = second compound 1 µM, first compound 0.949 µM
[11] = second compound 1 µM, first compound 3 µM
[12] = second compound 3.16 µM, first compound 0.00949 µM
[13] = second compound 3.16 µM, first compound 0.03 µM
[14] = second compound 3.16 µM, first compound 0.0949 µM
[15] = second compound 3.16 µM, first compound 0.3 µM
[16] = second compound 3.16 µM, first compound 0.949 µM
[17] = second compound 3.16 µM, first compound 3 µM
[18] = second compound 10 µM, first compound 0.00949 µM
[19] = second compound 10 µM, first compound 0.03 µM
[20] = second compound 10 µM, first compound 0.0949 µM
[21] = second compound 10 µM, first compound 0.3 µM
[22] = second compound 10 µM, first compound 0.949 µM
[23] = second compound 10 µM, first compound 3 µM
[24] = second compound 31.6 µM, first compound 0.00949 µM
[25] = second compound 31.6 µM, first compound 0.03 µM
[26] = second compound 31.6 µM, first compound 0.0949 µM
[27] = second compound 31.6 µM, first compound 0.3 µM
[28] = second compound 31.6 µM, first compound 0.949 µM
[29] = second compound 31.6 µM, first compound 3 µM
[30] = second compound 100 µM, first compound 0.00949 µM
[31] = second compound 100 µM, first compound 0.03 µM
[32] = second compound 100 µM, first compound 0.0949 µM
[33] = second compound 100 µM, first compound 0.3 µM
[34] = second compound 100 µM, first compound 0.949 µM
[35] = second compound 100 µM, first compound 3 µM
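Note: spheroids exposed to compound for 7 days before measurement.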
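Throughout, for viability, T/C: percent of vehicle control viability with 100% = DMSO-treated spheroids.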

Cc1cc(C)c(CNC(=O)c2cc(-c3ccc(CN4CCOCC4)cc3)cc3c2cnn3C2CCCC2)c(=O)[nH]1
viability, T/C (compound 0.0316 µM): 99.9% and 101% and 92.4% | viability, T/C (compound 0.1 µM): 118% and 95.5% and 100% | viability, T/C (compound 0.316 µM): 111% and 98.5% and 101% | viability, T/C (compound 1 µM): 109% and 97% and 96.8% | viability, T/C (compound 3.16 µM): 126% and 87.5% and 87.7% | viability, T/C (compound 10 µM): 75.6% and 33.3% and 40.8% | IC50 (curve of compound): > 10000 nM and 7020 nM and 7990 nM

Cc1sc2c(c1C)C(c1ccc(Cl)cc1)=NC(CC(=O)Nc1ccc(O)cc1)c1nnc(C)n1-2 (centres undefined)
viability, T/C (compound 0.00949 µM): 99.1% and 96.4% and 100% | viability, T/C (compound 0.03 µM): 101% and 90.4% and 111% | viability, T/C (compound 0.0949 µM): 73% and 49% and 66.3% | viability, T/C (compound 0.3 µM): 13.4% and 14.2% and 11.2% | viability, T/C (compound 0.949 µM): 1.66% and 1.1% and 1.46% | viability, T/C (compound 3 µM): 0.54% and 0.67% and 1% | IC50 (curve of compound): 148 nM and 96.5 nM and 134 nM

CNCc1ccc(-c2cc(-c3nc(-c4ccc(S(=O)(=O)C(C)C)cc4)cnc3N)on2)cc1 + Cn1nnc2c(C(N)=O)ncn2c1=O
IC50 [1]: 275 nM | IC50 [2]: 382 nM | IC50 [3]: 401 nM | IC50 [4]: 260 nM | IC50 [5]: 214 nM | viability, T/C [6]: 103% | viability, T/C [7]: 100% | viability, T/C [8]: 99.6% | viability, T/C [9]: 45.4% | viability, T/C [10]: 10.3% | viability, T/C [11]: 1.84% | viability, T/C [12]: 108% | viability, T/C [13]: 101% | viability, T/C [14]: 102% | viability, T/C [15]: 61.2% | viability, T/C [16]: 7.59% | viability, T/C [17]: 1.85% | viability, T/C [18]: 104% | viability, T/C [19]: 103% | viability, T/C [20]: 97.9% | viability, T/C [21]: 64.5% | viability, T/C [22]: 7.44% | viability, T/C [23]: 1.34% | viability, T/C [24]: 104% | viability, T/C [25]: 102% | viability, T/C [26]: 99.9% | viability, T/C [27]: 42.7% | viability, T/C [28]: 5.84% | viability, T/C [29]: 0.96% | viability, T/C [30]: 104% | viability, T/C [31]: 106% | viability, T/C [32]: 105% | viability, T/C [33]: 27.1% | viability, T/C [34]: 4.72% | viability, T/C [35]: 0.67%

COc1ccc([C@@H](O)c2cc(-c3ncnc4cc(N5CCOCC5)ccc34)c(F)cc2Cl)nn1 + COc1cc2c(cc1O)CCNC21CSC2c3c(OC(C)=O)c(C)c4c(c3C(COC1=O)N1C(O)C3Cc5cc(C)c(OC)c(O)c5C(C21)N3C)OCO4
IC50 (curve of first compound, second compound 30 pM): 5960 nM | IC50 (curve of first compound, second compound 94.9 pM): 3850 nM | IC50 (curve of first compound, second compound 0.0003 µM): 399 nM | IC50 (curve of first compound, second compound 0.000949 µM): < 31.6 nM | IC50 (curve of first compound, second compound 0.003 µM): < 31.6 nM | viability, T/C (second compound 30 pM, first compound 0.0316 µM): 97.2% | viability, T/C (second compound 30 pM, first compound 0.1 µM): 92.9% | viability, T/C (second compound 30 pM, first compound 0.316 µM): 102% | viability, T/C (second compound 30 pM, first compound 1 µM): 98.6% | viability, T/C (second compound 30 pM, first compound 3.16 µM): 83.3% | viability, T/C (second compound 30 pM, first compound 10 µM): 22.5% | viability, T/C (second compound 94.9 pM, first compound 0.0316 µM): 105% | viability, T/C (second compound 94.9 pM, first compound 0.1 µM): 101% | viability, T/C (second compound 94.9 pM, first compound 0.316 µM): 94.2% | viability, T/C (second compound 94.9 pM, first compound 1 µM): 94.3% | viability, T/C (second compound 94.9 pM, first compound 3.16 µM): 56.3% | viability, T/C (second compound 94.9 pM, first compound 10 µM): 18.3% | viability, T/C (second compound 0.0003 µM, first compound 0.0316 µM): 84.1% | viability, T/C (second compound 0.0003 µM, first compound 0.1 µM): 90.8% | viability, T/C (second compound 0.0003 µM, first compound 0.316 µM): 60% | viability, T/C (second compound 0.0003 µM, first compound 1 µM): 9.13% | viability, T/C (second compound 0.0003 µM, first compound 3.16 µM): 2.15% | viability, T/C (second compound 0.0003 µM, first compound 10 µM): 0.54% | viability, T/C (second compound 0.000949 µM, first compound 0.0316 µM): 0.44% | viability, T/C (second compound 0.000949 µM, first compound 0.1 µM): 0.79% | viability, T/C (second compound 0.000949 µM, first compound 0.316 µM): 0.24% | viability, T/C (second compound 0.000949 µM, first compound 1 µM): 0.35% | viability, T/C (second compound 0.000949 µM, first compound 3.16 µM): 1.2% | viability, T/C (second compound 0.000949 µM, first compound 10 µM): 2.19% | viability, T/C (second compound 0.003 µM, first compound 0.0316 µM): 1.61% | viability, T/C (second compound 0.003 µM, first compound 0.1 µM): 2.06% | viability, T/C (second compound 0.003 µM, first compound 0.316 µM): 2.65% | viability, T/C (second compound 0.003 µM, first compound 1 µM): 3.97% | viability, T/C (second compound 0.003 µM, first compound 3.16 µM): 4.18% | viability, T/C (second compound 0.003 µM, first compound 10 µM): 4.47%

Cn1ncnc1[C@H]1c2n[nH]c(=O)c3cc(F)cc(c23)N[C@@H]1c1ccc(F)cc1 + Cn1nnc2c(C(N)=O)ncn2c1=O
IC50 [1]: 1580 nM | IC50 [2]: 1470 nM | IC50 [3]: 1100 nM | IC50 [4]: 131 nM | IC50 [5]: < 9.49 nM | viability, T/C [6]: 99% | viability, T/C [7]: 99.2% | viability, T/C [8]: 94.3% | viability, T/C [9]: 99.9% | viability, T/C [10]: 82.9% | viability, T/C [11]: 8.45% | viability, T/C [12]: 100% | viability, T/C [13]: 99.9% | viability, T/C [14]: 97.5% | viability, T/C [15]: 95.4% | viability, T/C [16]: 77.1% | viability, T/C [17]: 6.31% | viability, T/C [18]: 104% | viability, T/C [19]: 98% | viability, T/C [20]: 95.1% | viability, T/C [21]: 94% | viability, T/C [22]: 56.2% | viability, T/C [23]: 6.77% | viability, T/C [24]: 97.7% | viability, T/C [25]: 77.7% | viability, T/C [26]: 56.5% | viability, T/C [27]: 35.6% | viability, T/C [28]: 12.3% | viability, T/C [29]: 3.26% | viability, T/C [30]: 16.3% | viability, T/C [31]: 12.1% | viability, T/C [32]: 9.69% | viability, T/C [33]: 7.58% | viability, T/C [34]: 6.59% | viability, T/C [35]: 1.86%
